From ChEMBL document CHEMBL1201862, “PubChem BioAssay data set” (2004)
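Each compound was tested at five concentrations against cells in 96-well plates for 48 hours. GI50 = concentration required for 50% inhibition of growth.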 The source made the active and inactive calls. Cut-off read from the data, not from the text of the source: active = GI50 up to about 1.1 µM and inactive = higher.

How the values were obtained:
Assay in all cases: NCI anticancer screen, dose series, 48 h
A549 = system: A549
LXFL 529 = system: LXFL 529
NCI-H23 = system: NCI-H23
K562 = system: K562
HOP-62 = system: HOP-62
TK-10 = system: TK-10
EKVX = system: EKVX
SNB-75 = system: SNB-75
OVCAR-3 = system: OVCAR-3
HL-60 = system: HL-60
UACC-257 = system: UACC-257
SR = system: SR
U-251 = system: U-251
CCRF-CEM = system: CCRF-CEM
NCI-H460 = system: NCI-H460
SN12C = system: SN12C

Measured: GI50

c1ccc(N2CCN(CCN3CCc4c([nH]c5ccccc45)C3c3cccnc3)CC2)cc1 (centres undefined)
inactive: A549 > 100 µM | LXFL 529 > 100 µM | NCI-H23 > 100 µM | K562 7.14 µM | HOP-62 89.1 µM | TK-10 > 100 µM | EKVX > 100 µM | SNB-75 3.07 µM | OVCAR-3 > 100 µM | HL-60 > 100 µM | UACC-257 > 100 µM | SR > 100 µM | U-251 > 100 µM | CCRF-CEM > 100 µM | NCI-H460 > 100 µM | SN12C > 100 µM

CP(=O)(CCSc1ccccc1)c1ccccc1 (centres undefined)
inactive: A549 > 100 µM | LXFL 529 > 100 µM | NCI-H23 > 100 µM | K562 > 100 µM | HOP-62 > 100 µM | TK-10 > 100 µM | EKVX > 100 µM | SNB-75 > 100 µM | OVCAR-3 > 100 µM | HL-60 35.6 µM | UACC-257 > 100 µM | SR > 100 µM | U-251 > 100 µM | CCRF-CEM > 100 µM | NCI-H460 > 100 µM | SN12C > 100 µM

CC(=O)OC1[C@H]2c3cc4c(cc3CN3CCC(C[C@@H]1OC(C)=O)C23)OCO4 (some centres undefined)
inactive: A549 > 75 µM | LXFL 529 > 75 µM | NCI-H23 > 75 µM | K562 > 75 µM | HOP-62 > 75 µM | TK-10 > 75 µM | EKVX > 75 µM | SNB-75 > 75 µM | OVCAR-3 > 75 µM | HL-60 > 75 µM | UACC-257 > 75 µM | SR > 75 µM | U-251 > 75 µM | CCRF-CEM > 75 µM | NCI-H460 > 75 µM | SN12C > 75 µM

[O-]c1c2c(nn1-c1ccc(Cl)cc1)c1ccccc1c[n+]2Cc1ccccc1
inactive: A549 63.4 µM | LXFL 529 > 100 µM | NCI-H23 > 100 µM | K562 > 100 µM | HOP-62 > 100 µM | TK-10 > 100 µM | EKVX > 100 µM | SNB-75 32.2 µM | OVCAR-3 > 100 µM | HL-60 > 100 µM | UACC-257 > 100 µM | SR > 100 µM | U-251 > 100 µM | CCRF-CEM > 100 µM | NCI-H460 > 100 µM | SN12C > 100 µM
